The test system of this experiment is P388 leukemia ip, CD2F1 mice, survival T/C. In words: NCI In Vivo Anticancer Drug Screen. Data for tumor model P388 Leukemia (intraperitoneal) in CD2F1 (CDF1) mice. The settings on record: endpoint: median survival time, higher = longer survival. The procedure, abridged: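 Mice carrying the transplanted tumor received test compound or vehicle. Survival was recorded in each group, and the value is the treated-group measurement divided by that of the vehicle-treated control group.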

[1] abbreviates: dose: 25.0 mg/kg/injection, schedule: Q01DX009 (ip), vehicle: saline.
Setting [2] is: dose: 50.0 mg/kg/injection, schedule: Q01DX009 (ip), vehicle: saline.
Setting [3] is: dose: 100.0 mg/kg/injection, schedule: Q01DX009 (ip), vehicle: saline.
Where [4] appears, read: dose: 200.0 mg/kg/injection, schedule: Q01DX009 (ip), vehicle: saline.
[5] abbreviates: dose: 100.0 mg/kg/injection, schedule: Q04DX003 (ip), vehicle: saline with Tween-80.
The mark [6] stands for this setting: dose: 200.0 mg/kg/injection, schedule: Q04DX003 (ip), vehicle: saline with Tween-80.
[7] abbreviates: dose: 400.0 mg/kg/injection, schedule: Q04DX003 (ip), vehicle: saline with Tween-80.
Where [8] appears, read: dose: 50.0 mg/kg/injection, schedule: Q01DX005 (ip), vehicle: saline with Tween-80.
Setting [9] is: dose: 100.0 mg/kg/injection, schedule: Q01DX005 (ip), vehicle: saline with Tween-80.
[10] abbreviates: dose: 200.0 mg/kg/injection, schedule: Q01DX005 (ip), vehicle: saline with Tween-80.

Where “and” joins values, the source holds several entries; their conditions need not be identical. Identical values can stand only once. Toxic doses and inconclusive results are not listed.

Take `O=P1(NCCCl)OCCCN1CCCl` (stereo unspecified): the T/C was 184 % of control under setting [1]; 157 % of control (dose: 30.0 mg/kg/injection, schedule: Q01DX005 (iv), vehicle: saline); 270 % of control under setting [2]; 195 % of control (dose: 60.0 mg/kg/injection, schedule: Q01DX005 (ip), vehicle: saline); 186 % of control (dose: 60.0 mg/kg/injection, schedule: Q01DX005 (iv), vehicle: saline); 282 % of control under setting [3]. The T/C is 280 % of control (dose: 120.0 mg/kg/injection, schedule: Q01DX005 (ip), vehicle: saline); 241 % of control (dose: 120.0 mg/kg/injection, schedule: Q01DX005 (iv), vehicle: saline); 111 % of control under setting [4]; 280 % of control (dose: 240.0 mg/kg/injection, schedule: Q01DX005 (ip), vehicle: saline); 252 % of control (dose: 240.0 mg/kg/injection, schedule: Q01DX005 (iv), vehicle: saline); 233 % of control (dose: 289.0 mg/kg/injection, schedule: Q01DX001 (ip), vehicle: saline). The T/C runs as follows: (dose: 431.0 mg/kg/injection, schedule: Q01DX001 (ip), vehicle: saline) 582 % of control; (dose: 538.0 mg/kg/injection, schedule: Q01DX001 (ip), vehicle: saline) 582 % of control; (dose: 646.0 mg/kg/injection, schedule: Q01DX001 (ip), vehicle: saline) 242 % of control.

Take `Cc1c(COC(=O)NC2CCCCC2)c(COC(=O)NC2CCCCC2)c2c3ccccc3c3ccccc3n12`: the T/C is, setting by setting: (dose: 12.5 mg/kg/injection, schedule: Q01DX009 (ip), vehicle: distilled water + Tween-80) 106 % of control; (dose: 25.0 mg/kg/injection, schedule: Q01DX009 (ip), vehicle: distilled water + Tween-80) 100 % of control and 93 % of control; (dose: 50.0 mg/kg/injection, schedule: Q01DX009 (ip), vehicle: distilled water + Tween-80) 101 % of control and 106 % of control; (dose: 100.0 mg/kg/injection, schedule: Q01DX009 (ip), vehicle: distilled water + Tween-80) 101 % of control and 110 % of control; (dose: 200.0 mg/kg/injection, schedule: Q01DX009 (ip), vehicle: distilled water + Tween-80) 110 % of control.

Consider `COCC1(C)CCCC2(C)C3=CC(=O)CCC3CCC12` (stereo unspecified), for which the T/C under setting [5] is 100 % of control, the T/C under setting [6] was 108 % of control and the T/C under setting [7] was 95 % of control.

In the case of `COc1ccc(C(C)c2cc3c(cc2OC(C)=O)OCO3)cc1` (stereo unspecified), the T/C was 100 % of control under setting [8], 87 % of control under setting [9] and 93 % of control under setting [10].

With `Cl/N=N/c1nc(-c2ccccc2)[nH]c1-c1ccccc1`, the T/C (dose: 50.0 mg/kg/injection, schedule: Q01DX001 (ip), vehicle: suspension in saline) was 109 % of control; the T/C (dose: 100.0 mg/kg/injection, schedule: Q01DX001 (ip), vehicle: suspension in saline) is 101 % of control; the T/C (dose: 200.0 mg/kg/injection, schedule: Q01DX001 (ip), vehicle: suspension in saline) was 99 % of control.

For `C/C(=N\N)C1C(=O)c2ccccc2C1=O`, the T/C is 100 % of control (dose: 6.25 mg/kg/injection, schedule: Q01DX009 (ip), vehicle: saline); 105 % of control (dose: 12.5 mg/kg/injection, schedule: Q01DX009 (ip), vehicle: saline); 101 % of control and 86 % of control under setting [1]; 98 % of control under setting [2].

In the case of `Cc1cccc(-n2c(-c3ccc([N+](=O)[O-])cc3)csc2=NC(=O)c2cccc([N+](=O)[O-])c2)c1C`, the T/C is 91 % of control (dose: 50.0 mg/kg/injection, schedule: Q01DX009 (ip), vehicle: saline with Tween-80); 87 % of control (dose: 100.0 mg/kg/injection, schedule: Q01DX009 (ip), vehicle: saline with Tween-80); 87 % of control (dose: 200.0 mg/kg/injection, schedule: Q01DX009 (ip), vehicle: saline with Tween-80).

Consider `O=P(O)(O)Oc1ccc(NCCO)cc1`, for which the T/C was 107 % of control (dose: 50.0 mg/kg/injection, schedule: Q01DX001 (ip), vehicle: saline); 99 % of control (dose: 100.0 mg/kg/injection, schedule: Q01DX001 (ip), vehicle: saline); 100 % of control (dose: 200.0 mg/kg/injection, schedule: Q01DX001 (ip), vehicle: saline); 100 % of control (dose: 400.0 mg/kg/injection, schedule: Q01DX001 (ip), vehicle: saline).

As for `CC(C)(C)CC(C)(C)C/C=C/C[N+](C)(C)C/C=C/CC(C)(C)CC(C)(C)C`, the T/C (dose: 12.5 mg/kg/injection, schedule: Q04DX002 (ip), vehicle: saline) was 102 % of control and the T/C (dose: 25.0 mg/kg/injection, schedule: Q04DX002 (ip), vehicle: saline) is 95 % of control.

As for `COc1cc2cccnc2c2[nH]c(=O)c3c(c12)CCC3`, the T/C (dose: 100.0 mg/kg/injection, schedule: Q04DX003 (ip), vehicle: saline) was 101 % of control and the T/C (dose: 200.0 mg/kg/injection, schedule: Q04DX003 (ip), vehicle: saline) was 99 % of control.

As to `Cc1cc(Cl)ccc1NC(=O)COc1ccc(Cl)cc1Cl`, the T/C by setting is: (dose: 50.0 mg/kg/injection, schedule: Q04DX003 (ip), vehicle: saline with Tween-80) 100 % of control; under setting [5], 95 % of control; under setting [6], 90 % of control.

Regarding `C/C(=N/NC(=O)CCl)c1ccccc1`, the T/C (dose: 75.0 mg/kg/injection, schedule: Q01DX009 (ip), vehicle: saline with Tween-80) is 108 % of control.

As for `CCCCCCCCCCCCCCCC[N+]1(CC)CCSCC1`, the T/C is 100 % of control under setting [2], 96 % of control under setting [3] and 100 % of control under setting [4].

Regarding `CCSc1nc(N)c(Br)c(Sc2nc(N)nc3nc[nH]c23)n1`, the T/C is, setting by setting: under setting [8], 103 % of control; under setting [9], 101 % of control; under setting [10], 97 % of control.

Take `CC1=CC(C)(C)N=C2SC(=O)c3cc4c(cc3N12)OCO4`: the T/C (dose: 100.0 mg/kg/injection, schedule: Q04DX002 (ip), vehicle: saline with Tween-80) is 106 % of control; the T/C (dose: 200.0 mg/kg/injection, schedule: Q04DX002 (ip), vehicle: saline with Tween-80) was 98 % of control; the T/C (dose: 400.0 mg/kg/injection, schedule: Q04DX002 (ip), vehicle: saline with Tween-80) is 97 % of control.

As to `CC1(c2ccco2)NC(=O)NC1=O` (stereo unspecified), the T/C by setting is: under setting [5], 90 % of control; under setting [6], 100 % of control; under setting [7], 90 % of control.

Take `[Se]=P(c1ccccc1)(N1CCCCC1)N1CCCCC1`: the T/C reads like this: (dose: 12.5 mg/kg/injection, schedule: Q01DX001 (ip), vehicle: Klucel (hydroxypropylcellulose) (HPC)) 106 % of control; (dose: 25.0 mg/kg/injection, schedule: Q01DX001 (ip), vehicle: Klucel (hydroxypropylcellulose) (HPC)) 101 % of control; (dose: 50.0 mg/kg/injection, schedule: Q01DX001 (ip), vehicle: Klucel (hydroxypropylcellulose) (HPC)) 93 % of control.

In the case of `COc1cc(CCNC(C)=O)c(NC=O)cc1OC`, the T/C was 108 % of control (dose: 100.0 mg/kg/injection, schedule: Q04DX002 (ip), vehicle: saline); 105 % of control (dose: 200.0 mg/kg/injection, schedule: Q04DX002 (ip), vehicle: saline); 99 % of control (dose: 400.0 mg/kg/injection, schedule: Q04DX002 (ip), vehicle: saline).

Consider `Cc1cn(CCCn2cnc3cncnc32)c(=O)[nH]c1=O`, for which the T/C was 98 % of control (dose: 50.0 mg/kg/injection, schedule: Q01DX005 (ip), vehicle: suspension in saline); 105 % of control (dose: 100.0 mg/kg/injection, schedule: Q01DX005 (ip), vehicle: suspension in saline); 96 % of control (dose: 200.0 mg/kg/injection, schedule: Q01DX005 (ip), vehicle: suspension in saline).

For the molecule `C=C1C(=O)OC2C=C(CCC(C)=O)C(C)C(OC(C)=O)CC12` (stereo unspecified), the T/C runs as follows: (dose: 25.0 mg/kg/injection, schedule: Q01DX009 (ip), vehicle: Klucel (hydroxypropylcellulose) (HPC)) 100 % of control; (dose: 50.0 mg/kg/injection, schedule: Q01DX009 (ip), vehicle: Klucel (hydroxypropylcellulose) (HPC)) 102 % of control; (dose: 100.0 mg/kg/injection, schedule: Q01DX009 (ip), vehicle: Klucel (hydroxypropylcellulose) (HPC)) 94 % of control; (dose: 200.0 mg/kg/injection, schedule: Q01DX009 (ip), vehicle: Klucel (hydroxypropylcellulose) (HPC)) 94 % of control.

On to `O=[N+]1C=CC=CC1=C1C=CC=CN1[O-]`, for which the T/C is 104 % of control under setting [8], 110 % of control under setting [9] and 103 % of control under setting [10].
